We go through 1 compound from EPA's ToxValDB 9.5 (doi:10.2903/j.efsa.2005.32ar).

In brackets after ≈: the same amount, converted by molar mass.

For series [1], the system named is Aphidius rhopalosiphi. In words: LR50; higher = less toxic. To be noted: acute; duration: 48 hours; mortality.
Series [2] deals with Tagia sp. To be noted: acute; mortality.
Series [3] has as its system Canidae. To be noted: chronic; duration: 6 months; oral; Dog Other; clinical signs.
The test system of series [4] is Colinus virginianus.
Series [5] deals with Rattus norvegicus. The note with it: reproduction developmental.
Series [6] relates to Apis mellifera. To be noted: acute; duration: 48 hours; dermal; mortality.
For series [7], the system named is Anas platyrhynchos. The note with it: short-term; oral; feed; mortality.
Series [8] relates to Bibionidae. The note with it: chronic/long-term; development.
The test system of series [9] is Oncorhynchus mykiss.
The test system of series [10] is Mus musculus.
Series [11] concerns Daphnia magna. To be noted: chronic/long-term; duration: 21 days; reproduction.

In the case of `COP(=S)(OC)Oc1c(Cl)cc(C)cc1Cl` [Tolclofos-methyl], in series [1], the LR50 was 43.7 g/ha. The LC50 in series [2] is over 1000 mg/kg; in series [7], over 1620 mg/kg-day; in [9] (acute, duration: 96 hours, mortality), 0.69 µg/mL (≈ 2.29 µM). Also, the NOAEL in series [3] turned out to be 21 mg/kg-day; in series [10] (chronic, duration: 2 years, clinical signs), 6.4 mg/kg-day. Besides, the LD50 was over 5000 mg/kg in series [4] (acute, oral, mortality); over 100 µg/piece in [6]; 3500 mg/kg in [10] (acute, oral, mortality). Besides, in series [4] (reproduction developmental), the NOEL was found to be 49 mg/kg-day. The NOEC in series [5] was 70.6 mg/kg-day; in series [8], 0.25 mg/L; in series [9] (chronic/long-term, duration: 97 days, growth), 0.012 mg/L; in series [11] it was 0.026 mg/L.
